The source of these data is patent publication US11306101B2 (Celgene Corporation, priority 2019, dated 2022).

By DC50 is commonly meant the concentration giving 50% degradation.

Some results are limits rather than exact numbers.

The target of the test is T1, CK1α (Homo sapiens, UniProt P48729+Q96SW2).
T1 construct: expressed in transfected cells
Kind of test: CK1α ePL degradation assay in MDS-L cells. In kind it is cell-based. The following applies: MDS-L cells expressing ePL-tagged CK1α; for DC50: concentration giving 50% CK1α degradation vs DMSO control; for Y: lowest measured CK1α level normalized to DMSO control. The gist of the method:
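MDS-L cells treated with compound in a 10-point, 3-fold series from 10 μM to 0.0005 μM at 37° C, 5% CO2 for the indicated times; CK1α measured by InCELL Hunter enzyme-fragment luminescence. Levels normalized to DMSO as percent of control; lowest level reached taken as Y value.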

T1 sequence (P48729 whole entry): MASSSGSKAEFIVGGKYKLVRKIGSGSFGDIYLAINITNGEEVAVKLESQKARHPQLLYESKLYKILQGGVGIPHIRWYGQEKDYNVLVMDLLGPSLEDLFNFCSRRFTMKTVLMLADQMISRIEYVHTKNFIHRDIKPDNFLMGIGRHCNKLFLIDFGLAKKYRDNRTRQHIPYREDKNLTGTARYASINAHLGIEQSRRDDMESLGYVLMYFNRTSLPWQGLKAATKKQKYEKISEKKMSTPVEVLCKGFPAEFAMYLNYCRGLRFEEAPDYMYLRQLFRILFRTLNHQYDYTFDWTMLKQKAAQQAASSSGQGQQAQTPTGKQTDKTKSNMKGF
T1 sequence (Q96SW2 whole entry): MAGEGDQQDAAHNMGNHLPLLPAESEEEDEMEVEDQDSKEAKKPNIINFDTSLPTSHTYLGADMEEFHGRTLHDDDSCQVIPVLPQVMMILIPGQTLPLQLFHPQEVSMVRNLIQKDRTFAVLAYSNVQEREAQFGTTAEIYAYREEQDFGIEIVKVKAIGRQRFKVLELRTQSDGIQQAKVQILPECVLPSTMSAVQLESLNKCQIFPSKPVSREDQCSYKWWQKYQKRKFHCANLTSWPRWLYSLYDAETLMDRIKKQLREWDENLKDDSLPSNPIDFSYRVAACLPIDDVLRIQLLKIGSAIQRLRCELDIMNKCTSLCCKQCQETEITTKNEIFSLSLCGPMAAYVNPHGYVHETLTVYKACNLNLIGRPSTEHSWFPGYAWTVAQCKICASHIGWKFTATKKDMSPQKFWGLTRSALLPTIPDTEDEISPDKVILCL
T1 sequence (Q16531 whole entry partner): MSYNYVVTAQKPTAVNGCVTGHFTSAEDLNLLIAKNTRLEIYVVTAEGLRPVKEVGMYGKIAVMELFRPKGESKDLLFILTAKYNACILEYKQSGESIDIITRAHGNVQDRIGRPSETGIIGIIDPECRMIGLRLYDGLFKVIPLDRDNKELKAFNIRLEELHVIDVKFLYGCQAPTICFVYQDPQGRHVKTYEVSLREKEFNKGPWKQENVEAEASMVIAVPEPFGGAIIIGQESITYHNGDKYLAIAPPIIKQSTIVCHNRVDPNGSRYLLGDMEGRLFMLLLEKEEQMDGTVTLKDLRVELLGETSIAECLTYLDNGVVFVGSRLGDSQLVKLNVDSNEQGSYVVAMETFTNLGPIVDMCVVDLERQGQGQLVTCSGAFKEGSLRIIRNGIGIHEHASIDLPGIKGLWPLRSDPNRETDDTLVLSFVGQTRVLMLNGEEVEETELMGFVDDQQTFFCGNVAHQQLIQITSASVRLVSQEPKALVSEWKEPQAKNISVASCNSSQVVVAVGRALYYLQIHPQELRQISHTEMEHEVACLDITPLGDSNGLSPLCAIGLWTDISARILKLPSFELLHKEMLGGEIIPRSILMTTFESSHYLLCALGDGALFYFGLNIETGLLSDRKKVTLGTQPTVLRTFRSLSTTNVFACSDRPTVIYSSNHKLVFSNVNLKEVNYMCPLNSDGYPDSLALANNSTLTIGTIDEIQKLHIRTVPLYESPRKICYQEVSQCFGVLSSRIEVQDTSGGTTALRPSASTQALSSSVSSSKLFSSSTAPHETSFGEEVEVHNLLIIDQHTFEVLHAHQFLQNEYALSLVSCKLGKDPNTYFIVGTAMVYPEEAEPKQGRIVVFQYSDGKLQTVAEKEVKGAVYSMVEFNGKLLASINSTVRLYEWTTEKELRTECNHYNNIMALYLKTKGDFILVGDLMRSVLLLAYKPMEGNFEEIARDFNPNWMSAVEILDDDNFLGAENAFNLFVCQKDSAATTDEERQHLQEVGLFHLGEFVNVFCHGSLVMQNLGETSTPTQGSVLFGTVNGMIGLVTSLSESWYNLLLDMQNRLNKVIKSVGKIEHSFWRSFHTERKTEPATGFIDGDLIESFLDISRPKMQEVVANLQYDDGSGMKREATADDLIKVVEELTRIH

Turning to `O=C1CCC(N2Cc3c(ccc(C(=O)N[C@H](c4ccccc4Cl)C(F)(F)F)c3F)C2=O)C(=O)N1` (stereo partly drawn) [Example 114, N-((R)-1-(2-chlorophenyl)-2,2,2-trifluoroethyl)-2-(2,6-dioxopiperidin-3-yl)-4-fluoro-1-oxoisoindoline-5-carboxamide], the 50% degradation concentration (DC50) is under 0.1 µM and the Y result is given as “* (a Y value (shown as *) of 0<Y≤20%)”.
On to `O=C1CCC(N2Cc3c(ccc(C(=O)N[C@H](c4ccc(F)cn4)C(F)(F)F)c3F)C2=O)C(=O)N1` (stereo partly drawn) [Example 115, 2-(2,6-dioxopiperidin-3-yl)-4-fluoro-1-oxo-N-((R)-2,2,2-trifluoro-1-(5-fluoropyridin-2-yl)ethyl)isoindoline-5-carboxamide], for which the half-maximal degradation concentration (DC50) lay in the range of 0.1 to 0.5 µM and the Y entry is reported as “** (a Y value (shown as**) of 20%<Y≤35%)”.
For `O=C1CCC(N2Cc3cc(C(=O)N[C@H](c4ncccc4C(F)(F)F)C(F)(F)F)ccc3C2=O)C(=O)N1` (stereo partly drawn) [Example 116, 2-(2,6-dioxopiperidin-3-yl)-1-oxo-N-((R)-2,2,2-trifluoro-1-(3-(trifluoromethyl)pyridin-2-yl)ethyl)isoindoline-5-carboxamide] the same measures were 0.1 to 0.5 µM and “** (a Y value (shown as**) of 20%<Y≤35%)”.
`O=C1CCC(N2Cc3c(ccc(C(=O)N[C@H](c4ncccc4F)C(F)(F)F)c3F)C2=O)C(=O)N1` (stereo partly drawn) [Example 117, 2-(2,6-dioxopiperidin-3-yl)-4-fluoro-1-oxo-N-((R)-2,2,2-trifluoro-1-(3-fluoropyridin-2-yl)ethyl)isoindoline-5-carboxamide]: the 50% degradation concentration (DC50) fell in the range of 0.1 to 0.5 µM and the Y result is recorded as “** (a Y value (shown as**) of 20%<Y≤35%)”.
On to `CC[C@@H](NC(=O)c1ccc2c(c1)CN(C1CCC(=O)NC1=O)C2=O)c1ccccc1` (some centres unmarked) [Example 118], for which the 50% degradation concentration (DC50) fell in the range of 0.1 to 0.5 µM and the Y result is “** (a Y value (shown as**) of 20%<Y≤35%)”.
`O=C1CCC(N2Cc3cc(C(=O)N[C@H](c4cc(C(F)(F)F)ccn4)C(F)(F)F)ccc3C2=O)C(=O)N1` (stereo partly drawn) [Example 119, 2-(2,6-dioxopiperidin-3-yl)-1-oxo-N-((R)-2,2,2-trifluoro-1-(4-(trifluoromethyl)pyridin-2-yl)ethyl)isoindoline-5-carboxamide]: the DC50 was under 0.1 µM and the Y entry was “** (a Y value (shown as**) of 20%<Y≤35%)”.
With `O=C1CCC(N2Cc3c(ccc(C(=O)N[C@H](c4cccc(OC(F)(F)F)c4)C(F)(F)F)c3F)C2=O)C(=O)N1` (stereo partly drawn) [Example 120, 2-(2,6-dioxopiperidin-3-yl)-4-fluoro-1-oxo-N-((R)-2,2,2-trifluoro-1-(3-(trifluoromethoxy)phenyl)ethyl)isoindoline-5-carboxamide], the DC50 was in the range of 0.1 to 0.5 µM and the Y entry was “** (a Y value (shown as**) of 20%<Y≤35%)”.
The corresponding values for `O=C1CCC(N2Cc3c(ccc(C(=O)N[C@H](C4CCCCC4)C(F)(F)F)c3F)C2=O)C(=O)N1` (stereo partly drawn) [Example 121, N-((R)-1-cyclohexyl-2,2,2-trifluoroethyl)-2-(2,6-dioxopiperidin-3-yl)-4-fluoro-1-oxoisoindoline-5-carboxamide] are under 0.1 µM and “* (a Y value (shown as *) of 0<Y≤20%)”.
For `O=C1CCC(N2Cc3cc(C(=O)N[C@H](c4cccc(OC5CC5)c4)C(F)(F)F)ccc3C2=O)C(=O)N1` (stereo partly drawn) [Example 122, N-((R)-1-(3-cyclopropoxyphenyl)-2,2,2-trifluoroethyl)-2-(2,6-dioxopiperidin-3-yl)-1-oxoisoindoline-5-carboxamide] the same measures were under 0.1 µM and “* (a Y value (shown as *) of 0<Y≤20%)”.
The corresponding values for `O=C1CCC(N2Cc3cc(C(=O)N[C@@H](CC(F)(F)F)c4ccc(F)cc4)ccc3C2=O)C(=O)N1` (stereo partly drawn) [Example 123, 2-(2,6-dioxopiperidin-3-yl)-1-oxo-N-((S)-3,3,3-trifluoro-1-(4-fluorophenyl)propyl)isoindoline-5-carboxamide] are 0.1 to 0.5 µM and “** (a Y value (shown as**) of 20%<Y≤35%)”.
With `CC(C)[C@@H](NC(=O)c1ccc2c(c1)CN(C1CCC(=O)NC1=O)C2=O)c1ccccc1` (stereo partly drawn) [Example 124, 2-(2,6-dioxopiperidin-3-yl)-N-((R)-2-methyl-1-phenylpropyl)-1-oxoisoindoline-5-carboxamide], the half-maximal degradation concentration (DC50) was under 0.1 µM and the Y entry is recorded as “* (a Y value (shown as *) of 0<Y≤20%)”.
`O=C1CCC(N2Cc3cc(C(=O)N[C@H](c4cccc(C(F)(F)F)n4)C(F)(F)F)ccc3C2=O)C(=O)N1` (stereo partly drawn) [Example 125, 2-(2,6-dioxopiperidin-3-yl)-1-oxo-N-((R)-2,2,2-trifluoro-1-(6-(trifluoromethyl)pyridin-2-yl)ethyl)isoindoline-5-carboxamide]: the DC50 is under 0.1 µM and the Y result is reported as “* (a Y value (shown as *) of 0<Y≤20%)”.
The corresponding values for `O=C1CCC(N2Cc3cc(C(=O)N[C@H](c4ccc(C(F)(F)F)cn4)C(F)(F)F)ccc3C2=O)C(=O)N1` (stereo partly drawn) [Example 126, 2-(2,6-dioxopiperidin-3-yl)-1-oxo-N-((R)-2,2,2-trifluoro-1-(5-(trifluoromethyl)pyridin-2-yl)ethyl)isoindoline-5-carboxamide] are under 0.1 µM and “** (a Y value (shown as**) of 20%<Y≤35%)”.
For `O=C1CCC(N2Cc3cc(C(=O)N[C@H](c4ncc(Cl)cc4F)C(F)(F)F)ccc3C2=O)C(=O)N1` (stereo partly drawn) [Example 127, N-((R)-1-(5-chloro-3-fluoropyridin-2-yl)-2,2,2-trifluoroethyl)-2-(2,6-dioxopiperidin-3-yl)-1-oxoisoindoline-5-carboxamide], the DC50 was under 0.1 µM and the Y entry is “* (a Y value (shown as *) of 0<Y≤20%)”.
With `Cc1ccccc1[C@@H](NC(=O)c1ccc2c(c1F)CN(C1CCC(=O)NC1=O)C2=O)C(F)(F)F` (stereo partly drawn) [Example 128, 2-(2,6-dioxopiperidin-3-yl)-4-fluoro-1-oxo-N-((R)-2,2,2-trifluoro-1-o-tolylethyl)isoindoline-5-carboxamide], the DC50 is under 0.1 µM and the Y result was “* (a Y value (shown as *) of 0<Y≤20%)”.
`O=C1CCC(N2Cc3c(ccc(C(=O)N[C@@H](CC(F)(F)F)c4ccc(Cl)cc4)c3F)C2=O)C(=O)N1` (stereo partly drawn) [Example 129, N-((S)-1-(4-chlorophenyl)-3,3,3-trifluoropropyl)-2-(2,6-dioxopiperidin-3-yl)-4-fluoro-1-oxoisoindoline-5-carboxamide]: the half-maximal degradation concentration (DC50) fell in the range of 0.5 to 1 µM and the Y entry was “*** (a Y value (shown as***) of 35%<Y<50%)”.
`O=C1CCC(N2Cc3c(ccc(C(=O)N[C@H](c4ccc(OC5CC5)cc4)C(F)(F)F)c3F)C2=O)C(=O)N1` (stereo partly drawn) [Example 130, N-((R)-1-(4-cyclopropoxyphenyl)-2,2,2-trifluoroethyl)-2-(2,6-dioxopiperidin-3-yl)-4-fluoro-1-oxoisoindoline-5-carboxamide]: the DC50 lay within 0.1 to 0.5 µM and the Y entry is recorded as “** (a Y value (shown as**) of 20%<Y≤35%)”.
The corresponding values for `C[C@@H](NC(=O)c1ccc2c(c1)CN(C1CCC(=O)NC1=O)C2=O)c1ccccc1C#N` (stereo partly drawn) [Example 131, N-((R)-1-(2-cyanophenyl)ethyl)-2-(2,6-dioxopiperidin-3-yl)-1-oxoisoindoline-5-carboxamide] are under 0.1 µM and “** (a Y value (shown as**) of 20%<Y≤35%)”.
Turning to `C[C@@H](NC(=O)c1ccc2c(c1)CN(C1CCC(=O)NC1=O)C2=O)C1CCCC1` (some centres unmarked) [Example 132], the DC50 was 0.1 to 0.5 µM and the Y result is “** (a Y value (shown as**) of 20%<Y≤35%)”.
The corresponding values for `O=C1CCC(N2Cc3cc(C(=O)N[C@H](c4ncc(F)cc4F)C(F)(F)F)ccc3C2=O)C(=O)N1` (stereo partly drawn) [Example 133, N-((R)-1-(3,5-difluoropyridin-2-yl)-2,2,2-trifluoroethyl)-2-(2,6-dioxopiperidin-3-yl)-1-oxoisoindoline-5-carboxamide] are under 0.1 µM and “* (a Y value (shown as *) of 0<Y≤20%)”.
For `Cc1cccc([C@@H](NC(=O)c2ccc3c(c2F)CN(C2CCC(=O)NC2=O)C3=O)C(F)(F)F)c1` (stereo partly drawn) [Example 134, 2-(2,6-dioxopiperidin-3-yl)-4-fluoro-1-oxo-N-((R)-2,2,2-trifluoro-1-m-tolylethyl)isoindoline-5-carboxamide] the same measures were under 0.1 µM and “** (a Y value (shown as**) of 20%<Y≤35%)”.
For `O=C1CCC(N2Cc3c(ccc(C(=O)N[C@H](c4ccc(OC(F)(F)F)cc4)C(F)(F)F)c3F)C2=O)C(=O)N1` (stereo partly drawn) [Example 135, 2-(2,6-dioxopiperidin-3-yl)-4-fluoro-1-oxo-N-((R)-2,2,2-trifluoro-1-(4-(trifluoromethoxy)phenyl)ethyl)isoindoline-5-carboxamide] the same measures were 0.1 to 0.5 µM and “** (a Y value (shown as**) of 20%<Y≤35%)”.
In the case of `O=C1CCC(N2Cc3c(ccc(C(=O)N[C@H](c4ccccc4OC(F)(F)F)C(F)(F)F)c3F)C2=O)C(=O)N1` (stereo partly drawn) [Example 136, 2-(2,6-dioxopiperidin-3-yl)-4-fluoro-1-oxo-N-((R)-2,2,2-trifluoro-1-(2-(trifluoromethoxy)phenyl)ethyl)isoindoline-5-carboxamide], the half-maximal degradation concentration (DC50) was under 0.1 µM and the Y entry is recorded as “* (a Y value (shown as *) of 0<Y≤20%)”.
Take `O=C1CCC(N2Cc3c(ccc(C(=O)N[C@H](C4CCCC4)C(F)(F)F)c3F)C2=O)C(=O)N1` (stereo partly drawn) [Example 137, N-((R)-1-cyclopentyl-2,2,2-trifluoroethyl)-2-(2,6-dioxopiperidin-3-yl)-4-fluoro-1-oxoisoindoline-5-carboxamide]: the DC50 is under 0.1 µM and the Y result was “* (a Y value (shown as *) of 0<Y≤20%)”.
For `O=C1CCC(N2Cc3c(ccc(C(=O)N[C@@H](C(F)(F)F)C45CC(C4)C5)c3F)C2=O)C(=O)N1` (stereo partly drawn) [Example 138, N-((R)-1-(bicyclo[1.1.1]pentan-1-yl)-2,2,2-trifluoroethyl)-2-(2,6-dioxopiperidin-3-yl)-4-fluoro-1-oxoisoindoline-5-carboxamide] the same measures were under 0.1 µM and “* (a Y value (shown as *) of 0<Y≤20%)”.
